In patent US12491170B2, “Stable treprostinil prodrugs” (United Therapeutics Corporation, priority 2020, dated 2025):

What was measured:
[1] = molecular target: prostaglandin I2 (PGI2) receptor (IP) (Homo sapiens, UniProt P43119); test: IP receptor cAMP agonist assay (CHO-K1 cells); type: cell-based; conditions: Table 22; relative to treprostinil EC50 values; * partial agonists or ambiguous dose-response curves
Description: (§1) Cyclic AMP assay kit: Multiscreen™ TR-FRET cAMP 1.0 No Wash Assay Kit (Multispan, Inc.)
(§2) Cells were thawed from frozen cells and resuspended in assay buffer at desired concentrations. cAMP or Calcium assays were performed according to the manufacturer's protocol using Multiscreen™ TR-FRET cAMP 1.0 No Wash Assay Kit or Multiscreen™ Calcium 1.0 No Wash Kit.
(§3) Gas Cyclic AMP (cAMP) Assay: In agonist mode testing, cells were seeded in a 384-well plate at an appropriate density and then were treated with compounds and incubated at 37° C. for 20 minutes. The reaction was terminated by […] trFluor™ Eu-labeled cAMP and trFluor™ 650-labeled anti-cAMP antibody in lysis buffer. […] All testing wells contained 0.1% DMSO in the final concentrations.
(§4) Data in graphs are represented in Mean±SD. Dose-dependent responses were fitted with sigmoidal dose-response curves allowing variable slopes using GraphPad Prism version 6 (Graphpad Prism).
(§5) These studies used cell lines overexpressing either human IP, EP2 or DP1, or EP1 receptors, and following incubation with varying concentrations of compounds, cAMP levels were measured using Fluorescence Resonance Energy Transfer (FRET).

[2] = molecular target: prostaglandin E2 (PGE2) receptor 2 (EP2) (Homo sapiens, UniProt P43116); test: EP2 receptor cAMP agonist assay (HEK293T cells); type: cell-based; conditions: Table 22; relative to treprostinil EC50 values; * partial agonists or ambiguous dose-response curves
Sequence of prostaglandin E2 (PGE2) receptor 2 (EP2) (P43116 whole entry): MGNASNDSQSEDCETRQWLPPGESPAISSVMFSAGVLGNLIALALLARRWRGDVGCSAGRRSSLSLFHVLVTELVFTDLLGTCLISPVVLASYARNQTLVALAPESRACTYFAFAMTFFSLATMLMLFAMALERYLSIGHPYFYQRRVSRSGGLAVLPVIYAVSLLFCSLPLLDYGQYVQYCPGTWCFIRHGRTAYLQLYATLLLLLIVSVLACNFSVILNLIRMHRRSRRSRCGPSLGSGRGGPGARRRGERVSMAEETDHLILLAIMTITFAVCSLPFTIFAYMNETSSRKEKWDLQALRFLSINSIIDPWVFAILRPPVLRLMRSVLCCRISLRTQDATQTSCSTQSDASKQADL
Description: as §1, §2, §3, §4, §5

[3] = molecular target: T1, prostaglandin D2 (PGD2) receptor 1 (DP1) (Homo sapiens, UniProt Q13258); test: DP1 receptor cAMP agonist assay (HEK293T cells); type: cell-based; conditions: Table 22; relative to treprostinil EC50 values; * partial agonists or ambiguous dose-response curves
T1 sequence (Q13258 1-359): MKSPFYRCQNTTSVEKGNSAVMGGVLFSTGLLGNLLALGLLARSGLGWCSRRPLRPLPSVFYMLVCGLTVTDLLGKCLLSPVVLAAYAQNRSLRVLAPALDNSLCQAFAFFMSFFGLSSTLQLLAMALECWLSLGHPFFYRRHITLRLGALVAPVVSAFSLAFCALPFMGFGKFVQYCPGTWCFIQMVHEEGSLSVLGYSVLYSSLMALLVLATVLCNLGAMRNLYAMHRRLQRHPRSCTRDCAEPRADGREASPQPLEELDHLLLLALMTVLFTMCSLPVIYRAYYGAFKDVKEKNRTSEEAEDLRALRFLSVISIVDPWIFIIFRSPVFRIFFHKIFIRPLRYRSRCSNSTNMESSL
Description: as §1, §2, §3, §4, §5

PGE2 receptor 1 (EP1) = molecular target: T2, PGE2 receptor 1 (EP1) (Homo sapiens, UniProt P34995); test: EP1 receptor calcium agonist assay (HEK293T cells); type: cell-based; conditions: Table 22; relative to treprostinil EC50 values; * partial agonists or ambiguous dose-response curves
T2 sequence (P34995 1-402): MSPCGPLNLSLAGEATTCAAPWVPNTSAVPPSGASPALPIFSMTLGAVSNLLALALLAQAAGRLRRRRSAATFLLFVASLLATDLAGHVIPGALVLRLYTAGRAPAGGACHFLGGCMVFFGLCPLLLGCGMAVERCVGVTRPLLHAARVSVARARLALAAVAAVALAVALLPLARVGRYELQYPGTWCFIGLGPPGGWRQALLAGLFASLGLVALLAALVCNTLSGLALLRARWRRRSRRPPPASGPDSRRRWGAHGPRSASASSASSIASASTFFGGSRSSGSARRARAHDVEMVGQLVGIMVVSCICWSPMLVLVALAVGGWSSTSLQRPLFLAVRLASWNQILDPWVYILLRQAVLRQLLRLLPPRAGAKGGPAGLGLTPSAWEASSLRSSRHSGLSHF
Description: Calcium assay kit: Multiscreen™ Calcium 1.0 No Wash Kit (Multispan, Inc., Cat #MSCA01-1)
• EP1 Calcium and DP1 cAMP Assays: HBSS plus 20 mM HEPES • EP2 and IP1 cAMP Assays: 1 mM IBMX in HBSS plus 20 mM HEPES Instruments: FlexStation III (Molecular Devices) and FLIPR 384 (Molecular Devices)
as §2
Calcium Assay: Cells were seeded in a 384-well plate at an appropriate density. The calcium assay was conducted according to the manufacturer's protocols (Multiscreen Calcium 1.0 No Wash Assay Kit). The calcium dye loading buffer was added to the cells and incubated for 1 hour at 37° C. For agonist mode, cells were injected with Iloprost control agonist or test compound by FLIPR and calcium mobilization was monitored for 180 seconds with compound injected into the wells at the 19th second. Fluorescent emissions were read at 525 nm with excitation at 490 nm in a FLIPR 384 instrument (Molecular Devices).
Calcium Assay: Calcium assay results are expressed as “RFU” as defined in figure below. Data are represented in Mean±SEM. Dose-response curves were fitted using “Sigmoidal dose-response (variable slope)” function in GraphPad Prism 6. EC50 values were calculated based on the fitted curves.
Prostaglandin receptor activity assessments with treprostinil and treprostinil analogues have been conducted, and a historical, positive control agonist for these receptors, iloprost (for IP, EP2 and EP1) or PGD2 (for DP1), was also included. These studies used cell lines overexpressing either human IP, EP2 or DP1, or EP1 receptors, and following incubation with varying concentrations of compounds, cAMP levels were measured using Fluorescence Resonance Energy Transfer (FRET). The 665/620 (acceptor/donor emission signals) ratio is inversely proportional to the concentration of cAMP.

[4] = Hydrolysis of prodrugs to treprostinil at pH 6, 7, 8 and 40 C; type: physicochemical
Description: Tables 24, 25 and 26 present data for hydrolysis of selected treprostinil prodrugs at pH 6, 7 and 8, respectively, and 40 C.

[5] = regardless of the route of administration; cited from earlier work
[6] = oral delivery, animal studies; cited from earlier work

Sequence of prostaglandin I2 (PGI2) receptor (IP) (P43119 whole entry): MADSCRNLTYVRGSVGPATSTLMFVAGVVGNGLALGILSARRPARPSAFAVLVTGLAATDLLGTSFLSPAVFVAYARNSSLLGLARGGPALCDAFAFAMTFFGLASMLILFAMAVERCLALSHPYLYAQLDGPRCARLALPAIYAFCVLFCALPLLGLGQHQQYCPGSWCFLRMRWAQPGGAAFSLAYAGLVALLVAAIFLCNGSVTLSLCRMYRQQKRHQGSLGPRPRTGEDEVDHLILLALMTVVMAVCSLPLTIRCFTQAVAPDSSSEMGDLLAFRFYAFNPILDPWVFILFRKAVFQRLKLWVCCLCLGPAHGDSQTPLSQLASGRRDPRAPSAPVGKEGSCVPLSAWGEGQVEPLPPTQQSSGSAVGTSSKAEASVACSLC

| IP Relative to Tre [1] | EP2 Relative to Tre [2] | DP1 Relative to Tre [3] [x] | EP1 Relative to Tre (PGE2 receptor 1 (EP1)) | Hydrolysis to treprostinil, % Area, t = 1 week ([4]; pH 6, 40 C.) [% Area] | Hydrolysis to treprostinil, % Area, t = 2 weeks ([4]; pH 6, 40 C.) [% Area] | Hydrolysis to treprostinil, % Area, t = 3 weeks ([4]; pH 6, 40 C.) [% Area] | Hydrolysis to treprostinil, % Area, t = 1 week ([4]; pH 7, 40 C.) [% Area] | Hydrolysis to treprostinil, % Area, t = 2 weeks ([4]; pH 7, 40 C.) [% Area] | Hydrolysis to treprostinil, % Area, t = 3 weeks ([4]; pH 7, 40 C.) [% Area] | Hydrolysis to treprostinil, % Area, t = 1 week ([4]; pH 8, 40 C.) [% Area] | Hydrolysis to treprostinil, % Area, t = 2 weeks ([4]; pH 8, 40 C.) [% Area] | Hydrolysis to treprostinil, % Area, t = 3 weeks ([4]; pH 8, 40 C.) [% Area] | Compound | half-life once absorbed [5] | first-pass effect [6] |
| --- | --- | --- | --- | --- | --- | --- | --- | --- | --- | --- | --- | --- | --- | --- | --- |
| 527x | 26x | 73 | 133x* | – | – | – | – | – | – | – | – | – | CCCCCC(CCC1C(O)CC2Cc3c(cccc3OCC(=O)O)CC21)OCOC(=O)C(C)(C)C (stereo not drawn) [Prodrug LII] | – | – |
| 599x | 187x* | 89 | 64x* | 0.13 | 0.29 | 0.39 | 0.96 | 1.9 | 2.7 | 6.0 | 11.4 | 16.9 | CCCCCC(CCC1C(O)CC2Cc3c(cccc3OCC(=O)O)CC21)OC(=O)COc1ccccc1 (stereo not drawn) [Prodrug LXV] | – | – |
| – | – | – | – | – | – | – | – | – | – | – | – | – | CCCCC[C@H](O)CC[C@@H]1[C@H]2Cc3cccc(OCC(=O)O)c3C[C@H]2C[C@H]1O [Treprostinil] | about 1 hour | approximately 60% |
| 162x* | 24x* | 38 | 0.03x* | 0.72 | 1.2 | 1.5 | 0.46 | 0.93 | 1.2 | 1.8 | 3.9 | 5.8 | CCCCCC(CCC1C(O)CC2Cc3c(cccc3OCC(=O)O)CC21)OC(=O)COc1ccc(OC(F)(F)F)cc1 (stereo not drawn) [Prodrug LXIV] | – | – |
| 535x | 11x | 18 | 30x | – | – | – | – | – | – | – | – | – | CCCCC[C@H](O)CC[C@@H]1[C@H]2Cc3cccc(OCC(=O)OCC)c3C[C@H]2C[C@H]1O [Treprostinil ethyl ester, reference compound] | – | – |
